These are literature values, as cited in patent publication US20100330607A1, “PHOTOSWITCH-ENABLED ION CHANNEL ASSAY SYSTEM” (Photoswitch Biosciences, Inc., priority 2009, published 2010).

Read-outs that look alike come from different tables or passages of the source.

The conditions of data set [1]: read-out: Kd for Ca^2+.
The conditions of data set [2]: in the dark, in solution.
The subject of data set [3] is late INa. As to conditions: ventricular myocytes from dog hearts.
Data set [4] has as its system late INa. To be noted: ventricular myocytes from guinea-pig hearts.

With `Cc1ccc(N(CC(=O)O)CC(=O)O)c(OCCOc2cc(-c3c4cc(Cl)c(=O)cc-4oc4cc(O)c(Cl)cc34)ccc2N(CC(=O)O)CC(=O)O)c1` [Fluo-3], the Kd in data set [1] is 390 nM.

In the case of Fluo-4, the Kd in data set [1] is 345 nM.

Take Maleimide-Azobenzene-Glutamate [MAG]: the “rate of thermal relaxation, from cis to trans” value in data set [2] was “about 18 mins”.

In the case of `COc1ccccc1OCC(O)CN1CCN(CC(=O)Nc2c(C)cccc2C)CC1` (centres unmarked) [ranolazine], the “inhibition of the late INa” value in data set [3] is “concentration-, voltage- and frequency-dependent inhibition”; in data set [4], “concentration-, voltage- and frequency-dependent inhibition”.
